In assay [1] the target is T1, P-Selectin:PSGL1 interaction (Homo sapiens, UniProt P16109).
T1 construct: host or cells: HL-60 cells (ATCC, CCL-240) supply the PSGL-1 partner endogenously
T1 sequence (P16109 42-771 limits assumed): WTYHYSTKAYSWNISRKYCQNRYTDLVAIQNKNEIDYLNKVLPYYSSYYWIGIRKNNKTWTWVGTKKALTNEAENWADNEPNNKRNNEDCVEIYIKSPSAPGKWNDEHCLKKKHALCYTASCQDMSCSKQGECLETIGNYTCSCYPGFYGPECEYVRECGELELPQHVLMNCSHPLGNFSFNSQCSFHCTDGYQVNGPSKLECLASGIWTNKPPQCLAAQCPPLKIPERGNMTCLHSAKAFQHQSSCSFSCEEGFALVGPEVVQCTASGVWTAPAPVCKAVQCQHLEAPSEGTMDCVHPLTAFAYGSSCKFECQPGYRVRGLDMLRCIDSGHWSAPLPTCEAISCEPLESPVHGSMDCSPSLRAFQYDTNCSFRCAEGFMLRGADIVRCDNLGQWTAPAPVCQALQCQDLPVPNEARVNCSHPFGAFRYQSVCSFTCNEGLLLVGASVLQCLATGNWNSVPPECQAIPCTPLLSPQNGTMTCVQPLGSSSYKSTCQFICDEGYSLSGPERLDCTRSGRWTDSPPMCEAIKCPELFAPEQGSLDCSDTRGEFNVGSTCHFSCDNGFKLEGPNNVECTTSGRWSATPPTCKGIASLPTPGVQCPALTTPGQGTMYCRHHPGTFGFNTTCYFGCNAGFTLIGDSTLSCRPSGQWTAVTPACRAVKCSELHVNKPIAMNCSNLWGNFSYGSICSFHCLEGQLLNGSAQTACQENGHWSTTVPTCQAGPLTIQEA
As to the kind of experiment: Receptor ligand inhibition assay (P-Selectin binding to HL-60 cells). It counts as cell-based. Particulars: geomean of n=3. How it is done: Bicycle test samples, SelG1 (Crizanlizumab) were serially diluted maintaining 0.5% DMSO in assay buffer (25 mM HEPES, 121 mM NaCl, 5.4 mM KCl, 0.8 mM MgCl2, 1.8 mM CaCl2), 6 mM […], 5.5 mM glucose, 1% BSA, pH7.4) and transferred to 384 well clear bottom plates (Corning, 3712) with a final volume of 6 μL. […], of P-Selectin in imaging buffer (25 mM HEPES, 121 mM NaCl, 5.4 mM KCl, 0.8 mM MgCl2, 1.8 mM CaCl2), 6 mM […], 5.5 mM glucose, pH7.4) was added to give a 5 nM final concentration and incubated at room temperature for 15 minutes. HL-60 cells (ATCC, CCL-240) mixed with 1 μg/mL far red labelled wheat germ agglutinin (WGA, ThermoFisher W21404) and 1 μg/mL AlexaFluor 488-streptavidin (Invitrogen S11223) were added to the plate and incubated for 2 hours at room temperature in the absence of light. Staining and antibody binding were quantified by simultaneously scanning the microplates with 488 nm and 640 nm lasers on a mirrorball microplate cytometer, AF488 on FL2 triggering on AF647-WGA on FL4. Data was analysed in Dotmatics, using a four parameter logistic fit to generate IC50 values and % response. Percent inhibition was calculated using 100−% response at top concentration.

The target in assay [2] is T2, human P-Selectin protein (Homo sapiens, UniProt P16109).
T2 sequence (P16109 42-830): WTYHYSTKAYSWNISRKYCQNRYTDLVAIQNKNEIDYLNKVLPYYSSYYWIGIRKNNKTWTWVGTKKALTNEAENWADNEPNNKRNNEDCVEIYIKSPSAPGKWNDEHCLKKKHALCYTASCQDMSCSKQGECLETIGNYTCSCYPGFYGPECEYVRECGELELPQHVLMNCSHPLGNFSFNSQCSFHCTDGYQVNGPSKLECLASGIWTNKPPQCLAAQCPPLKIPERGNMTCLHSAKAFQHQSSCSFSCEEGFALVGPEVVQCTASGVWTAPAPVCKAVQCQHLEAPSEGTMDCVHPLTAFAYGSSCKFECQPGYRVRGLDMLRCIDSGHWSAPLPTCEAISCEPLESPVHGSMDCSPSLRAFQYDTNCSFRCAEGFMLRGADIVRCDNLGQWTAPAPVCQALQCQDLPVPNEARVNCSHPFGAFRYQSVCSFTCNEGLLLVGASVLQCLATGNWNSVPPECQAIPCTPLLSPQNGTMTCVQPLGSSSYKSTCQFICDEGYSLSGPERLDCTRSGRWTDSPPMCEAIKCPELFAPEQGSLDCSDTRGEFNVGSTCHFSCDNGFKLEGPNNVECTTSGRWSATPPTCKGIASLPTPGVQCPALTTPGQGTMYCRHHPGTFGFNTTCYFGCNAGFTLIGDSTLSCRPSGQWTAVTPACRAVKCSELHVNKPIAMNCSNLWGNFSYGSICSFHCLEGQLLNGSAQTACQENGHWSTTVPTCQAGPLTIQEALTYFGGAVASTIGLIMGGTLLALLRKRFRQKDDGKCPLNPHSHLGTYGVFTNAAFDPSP
Kind of assay: SPR binding assay (Biacore). The following applies: recombinant biotinylated human P-Selectin, 25° C. How it is done:
Biacore experiments were performed to determine ka (M−1s−1), kd (s−1), KD (nM) values of monomeric peptides binding to human Selectin proteins. Recombinant biotinylated human P-Selectin protein was used. For analysis of binding, either a Biacore 3000 or 5200 instrument was used with a CMS sensor chip (GE Healthcare). For sensor chip surface preparation, streptavidin was immobilized on the chip using standard amine-coupling chemistry at 25° C. with HBS-N (10 mM HEPES, 0.15 M NaCl, pH 7.4) as the running buffer. The carboxymethyl dextran surface was activated with a 12 min injection of a 1:1 ratio of 0.4 M 1-ethyl-3-(3-dim ethyl aminopropyl) carbodiimide hydrochloride (EDC)/0.1 M N-hydroxy succinimide (NHS) at a flow rate of 10 μl/min. For capture of streptavidin, protein was diluted to 0.2 mg/ml in 10 mM sodium acetate (pH 4.5) and captured by injecting 70 μl onto the activated chip surface. Residual activated groups were blocked with a 7 min injection of 1 M ethanolamine (pH 8.5). Biotinylated protein stock was diluted 1:100 in HBS-N and captured on one flow cell at 5 μl/min to a level of 1000-1500 RU. Buffer was changed to PBS/0.05% Tween 20 and a dilution series of the peptides was prepared in this buffer with a final DMSO concentration of 0.5%. The top concentration of the analyte varied from 200 nM to 50 μM; depending on predicted affinity of the interaction. In all cases a titration was performed with either seven 2-fold dilutions or five 3-fold dilutions. The SPR analysis was run at 25° C. with a flow rate of 50-80 μl/min with 60 seconds association and a suitable disassociation period (100-900 seconds). Data were corrected for DMSO excluded volume effects. All data were double-referenced for blank injections and reference surface using standard processing procedures and data processing and kinetic fitting were performed using Scrubber software, version 2.0c (BioLogic Software). Data were fitted using mass transport model allowing for mass transport effects where appropriate.
Background: SPR reads the build-up and loss of mass on a sensor chip optically.

For orientation: IC50 means the concentration that inhibits the measured activity by half. Usually Inhibition stands for the share of the control response that was lost under treatment. The low end stands for a weak effect, the high end for a strong effect. The term Kd denotes the free concentration of one partner at which half of the binding sites on the other are occupied at equilibrium, for simple one-to-one binding.

Like-named read-outs stand apart in the source and are kept apart here. Starred links: 1 amine or outer side, 2 acyl side, 3 side chain; linkers in the order of their positions; H or OH if unused. Positions of bridges follow the written chain, without caps; N, C: chain ends. Non-standard residues stand in square brackets, D forms with d. Residues, ends and D or L forms follow the SMILES beside them. Chains are numbered I, II in the order given. X2 = O=C(CCCC(=O)NCCOCCOCCOCCOCCOCCOCCOCCOCCOCCOCCOCCOCCOCCOCCOCCOCCOCCOCCOCCOCCOCCOCCOCCn1cc(CCC(=O)[*:2])nn1)NCCOCCOCCOCCOCCOCCOCCOCCOCCOCCOCCOCCOCCOCCOCCOCCOCCOCCOCCOCCOCCOCCOCCOCCn1cc(CCC(=O)[*:1])nn1; X5 = O=C(CCCC(=O)NCCOCCOCCOCCOCCOCCOCCOCCOCCOCCOCCn1cc(CCC(=O)[*:2])nn1)NCCOCCOCCOCCOCCOCCOCCOCCOCCOCCOCCn1cc(CCC(=O)[*:1])nn1; TATA = O=C(CC[*:1])N1CN(C(=O)CC[*:2])CN(C(=O)CC[*:3])C1; X1 = O=C(C[*:1])N1CCN(C(=O)C[*:2])CCN(C(=O)C[*:3])CC1; 1Nal = N[C@@H](Cc1cccc2ccccc12)C(=O)O Bounds are passed on as bounds.

On to `CC(C)C[C@@H]1NC(=O)[C@H](CO)NC(=O)[C@@H]2CCCN2C(=O)[C@H](C(C)C)NC(=O)[C@H](CC(=O)O)NC(=O)[C@@H]2CSCC(=O)N3CCN(CCN(CC3)C(=O)CSC[C@@H](C(=O)N[C@@H](C)C(=O)N[C@@H](CCCCNC(=O)CCc3cn(CCOCCOCCOCCOCCOCCOCCOCCOCCOCCOCCOCCOCCOCCOCCOCCOCCOCCOCCOCCOCCOCCOCCOCCNC(=O)CCCC(=O)NCCOCCOCCOCCOCCOCCOCCOCCOCCOCCOCCOCCOCCOCCOCCOCCOCCOCCOCCOCCOCCOCCOCCOCCn4cc(CCC(=O)NCCCC[C@H](NC(=O)[C@H](C)NC(=O)[C@@H]5CSCC(=O)N6CCN7CCN(CC6)C(=O)CSC[C@H](NC(=O)[C@H](Cc6cccc8ccccc68)NC(=O)[C@H](CC(=O)O)NC(=O)[C@H](C)NC(=O)[C@H](CC(=O)O)NC(=O)[C@@H](NC(=O)[C@H](C)N)CSCC7=O)C(=O)N[C@@H](CC(=O)O)C(=O)N[C@@H](C(C)C)C(=O)N6CCC[C@H]6C(=O)N[C@@H](CO)C(=O)N[C@@H](CC(C)C)C(=O)N6CCC[C@H]6C(=O)N5)C(N)=O)nn4)nn3)C(N)=O)NC(=O)[C@@H]3CCCN3C1=O)C(=O)CSC[C@H](NC(=O)[C@H](C)N)C(=O)N[C@@H](CC(=O)O)C(=O)N[C@@H](C)C(=O)N[C@@H](CC(=O)O)C(=O)N[C@@H](Cc1cccc3ccccc13)C(=O)N2` [BCY12258] (I: H-ACDAD[1Nal]CDVPSLPCAK-NH2 / II: H-ACDAD[1Nal]CDVPSLPCAK-NH2; linker I:2-I:7-I:14, II:2-II:7-II:14 via X1; linker I:16-II:16 via X2), for which, in assay [1] (5 nM P-Selectin, HL-60 cells, read-out: IC50), the half-inhibitory concentration (IC50) is > 97.7 nM. Further, the “Inhibition at top concentration” value in assay [1] (100−% response at top concentration) was found to be 57%. The equilibrium dissociation constant (Kd) in assay [2] (Affinity KD determined by SPR) is 0.409 nM.
As for `CSCC[C@@H]1NC(=O)[C@H](Cc2ccc(O)cc2)NC(=O)[C@@H](NC(=O)[C@H](C)NC(C)=O)CSCCC(=O)N2CN3CN(C2)C(=O)CCSC[C@H](NC(=O)[C@H](Cc2c[nH]c4ccccc24)NC(=O)[C@H](CCC(=O)O)NC1=O)C(=O)N[C@@H](CC(=O)O)C(=O)N[C@@H](C(C)C)C(=O)N[C@@H]([C@@H](C)O)C(=O)N[C@@H](CC(=O)O)C(=O)N[C@@H](Cc1ccc(O)cc1)C(=O)NCC(=O)N[C@H](C(=O)N[C@@H](CCCCNC(=O)CCc1cn(CCOCCOCCOCCOCCOCCOCCOCCOCCOCCOCCNC(=O)CCCC(=O)NCCOCCOCCOCCOCCOCCOCCOCCOCCOCCOCCn2cc(CCC(=O)NCCCC[C@H](NC(=O)[C@@H]4CSCCC(=O)N5CN6CN(C5)C(=O)CCSC[C@H](NC(=O)[C@H](Cc5c[nH]c7ccccc57)NC(=O)[C@H](CCC(=O)O)NC(=O)[C@H](CCSC)NC(=O)[C@H](Cc5ccc(O)cc5)NC(=O)[C@@H](NC(=O)[C@H](C)NC(C)=O)CSCCC6=O)C(=O)N[C@@H](CC(=O)O)C(=O)N[C@@H](C(C)C)C(=O)N[C@@H]([C@@H](C)O)C(=O)N[C@@H](CC(=O)O)C(=O)N[C@@H](Cc5ccc(O)cc5)C(=O)NCC(=O)N4)C(N)=O)nn2)nn1)C(N)=O)CSCCC3=O` [BCY5456] (I: Ac-ACYMEWCDVTDYGCK-NH2 / II: Ac-ACYMEWCDVTDYGCK-NH2; linker I:2-I:7-I:14, II:2-II:7-II:14 via TATA; linker I:15-II:15 via X5), the Kd in assay [2] (read-out: Affinity KD determined by SPR) was 500 nM.
`CSCC[C@@H]1NC(=O)[C@H](Cc2ccc(O)cc2)NC(=O)[C@@H](NC(=O)[C@H](C)NC(C)=O)CSCCC(=O)N2CN3CN(C2)C(=O)CCSC[C@H](NC(=O)[C@H](Cc2c[nH]c4ccccc24)NC(=O)[C@H](CCC(=O)O)NC1=O)C(=O)N[C@@H](CC(=O)O)C(=O)N[C@@H](C(C)C)C(=O)N[C@@H]([C@@H](C)O)C(=O)N[C@@H](CC(=O)O)C(=O)N[C@@H](Cc1ccc(O)cc1)C(=O)NCC(=O)N[C@H](C(=O)N[C@@H](CCCCNC(=O)CCc1cn(CCOCCOCCOCCOCCOCCOCCOCCOCCOCCOCCOCCOCCOCCOCCOCCOCCOCCOCCOCCOCCOCCOCCOCCNC(=O)CCCC(=O)NCCOCCOCCOCCOCCOCCOCCOCCOCCOCCOCCOCCOCCOCCOCCOCCOCCOCCOCCOCCOCCOCCOCCOCCn2cc(CCC(=O)NCCCC[C@H](NC(=O)[C@@H]4CSCCC(=O)N5CN6CN(C5)C(=O)CCSC[C@H](NC(=O)[C@H](Cc5c[nH]c7ccccc57)NC(=O)[C@H](CCC(=O)O)NC(=O)[C@H](CCSC)NC(=O)[C@H](Cc5ccc(O)cc5)NC(=O)[C@@H](NC(=O)[C@H](C)NC(C)=O)CSCCC6=O)C(=O)N[C@@H](CC(=O)O)C(=O)N[C@@H](C(C)C)C(=O)N[C@@H]([C@@H](C)O)C(=O)N[C@@H](CC(=O)O)C(=O)N[C@@H](Cc5ccc(O)cc5)C(=O)NCC(=O)N4)C(N)=O)nn2)nn1)C(N)=O)CSCCC3=O` [BCY5457] (I: Ac-ACYMEWCDVTDYGCK-NH2 / II: Ac-ACYMEWCDVTDYGCK-NH2; linker I:2-I:7-I:14, II:2-II:7-II:14 via TATA; linker I:15-II:15 via X2): the dissociation constant Kd in assay [2] (Affinity KD determined by SPR) was found to be 969 nM.
